Among the data in patent US8575150B2, “Triazole derivatives for treatment of Alzheimer's disease” (Merck Sharp & Dohme Corp., priority 2008, dated 2013) are IC50 values, retold here.

What is called IC50 is the concentration at which inhibition is half-maximal. A high value points to weaker potency in that assay.

SMILES strings stand for the structures.

The assay addresses T1, γ-secretase, Aβ(1-42) production in SH-SY5Y neuroblastoma cells overexpressing SPA4CT (Homo sapiens, UniProt P49768).
T1 construct: Human SH-SY5Y neuroblastoma cells overexpressing the direct γ-secretase substrate SPA4CT; endogenous in cells; host or cells: human SH-SY5Y neuroblastoma cells, transfected only with the substrate SPA4CT and induced with sodium butyrate
Kind of assay: Cell-based γ-secretase assay, Aβ(42) detection. The following applies: overnight incubation. How it is done:
Cell-Based γ-Secretase Assay
Human SH-SY5Y neuroblastoma cells overexpressing the direct γ-secretase substrate SPA4CT were induced with sodium butyrate (10 mM) for 4 hours prior to plating. Cells were plated at 35,000 cells/well/100 μl in 96-well plates in phenol red-free MEM/10% FBS, 50 mM HEPES, 1% Glutamine and incubated for 2 hrs at 37° C., 5% CO2.
Appropriate vehicle and inhibitor controls were used to determine the window of the assay.
After incubation overnight at 37° C., 5% CO2, 25 μl and […] were transferred into a standard Meso avidin-coated 96-well plate for detection of Aβ(40) and Aβ(42) peptides, respectively. 25 μl Meso Assay buffer (PBS, 2% BSA, 0.2% Tween-20) was added to the Aβ(40) wells followed by the addition of 25 μl of the respective antibody premixes to the wells:
Aβ(42) premix: 1 μg/mlruthenylated G2-11 antibody, 4 μg/ml; and biotinylated 4G8 antibody diluted in Origen buffer
(Biotinylated 4G8 antibody supplied by Signet Pathology Ltd; G2-10 and G2-11 antibodies supplied by Chemicon)
After overnight incubation of the assay plates on a shaker at 4° C., the Meso Scale Sector 6000 Imager was calibrated according to the manufacturer's instructions. After washing the plates 3 times with 150 μl of PBS per well, 150 μl Meso Scale Discovery read buffer was added to each well and the plates were read on the Sector 6000 Imager according to the manufacturer's instructions.
The total signal and the background were defined by the corresponding Me2SO and inhibitor controls.
For the compound `O=C1C(n2cc(-c3ncc(-c4ccncc4)cn3)nn2)CCc2c(F)cccc2N1CC(F)(F)F` (stereo not drawn) [Example 2, 6-fluoro-3-{4-[5-(pyridin-4-yl)pyrimidin-2-yl]-1H-1,2,3-triazol-1-yl}-1-(2,2,2-trifluoroethyl)-1,3,4,5-tetrahydro-2H-1-benzazepin-2-one], the IC50 was 1.33 µM.

In turn, `O=C1C(n2cc(-c3ccc(Oc4cccnc4)cc3)nn2)CCc2c(F)cccc2N1CC(F)(F)F` (stereo not drawn) [Example 61, 6-fluoro-3-{4-[4-(pyridin-3-yloxy)phenyl]-1H-1,2,3-triazol-1-yl}-1-(2,2,2-trifluoroethyl)-1,3,4,5-tetrahydro-2H-1-benzazepin-2-one] yielded an IC50 of 0.537 µM.

Regarding `COc1cc(-c2cn(C3CCc4ccccc4N(CC(F)(F)F)C3=O)nn2)ccc1-c1ccncc1` (stereo not drawn) [Example 1, 3-[4-(3-methoxy-4-pyridin-4-ylphenyl)-1H-1,2,3-triazol-1-yl]-1-(2,2,2-trifluoroethyl)-1,3,4,5-tetrahydro-2H-1-benzazepin-2-one], the IC50 stood at 0.08 µM. Compared with the last compound, the IC50 is about 6.7-fold lower.

In turn, `O=C1C(n2cc(-c3ccc(-c4ccnnc4)cc3)nn2)CCc2c(F)cccc2N1CC(F)(F)F` (racemic) [Example 123, (R) and (S)-6-fluoro-3-[4-(4-pyridazin-4-ylphenyl)-1H-1,2,3-triazol-1-yl]-1-(2,2,2-trifluoroethyl)-1,3,4,5-tetrahydro-2H-1-benzazepin-2-one] had a half-inhibitory concentration (IC50) of 0.083 µM. This IC50 and that of the compound before are within 1.5-fold of each other.

Turning to `COc1cc(-c2nc(C)no2)ccc1-c1cn(C2CCc3c(F)cccc3N(CC(F)(F)F)C2=O)nn1` (stereo not drawn) [Example 57, 6-fluoro-3-{4-[2-methoxy-4-(3-methyl-1,2,4-oxadiazol-5-yl)phenyl]-1H-1,2,3-triazol-1-yl}-1-(2,2,2-trifluoroethyl)-1,3,4,5-tetrahydro-2H-1-benzazepin-2-one], the 50% inhibitory concentration (IC50) turned out to be 0.431 µM. Compared with the last compound, the IC50 is about 5.2-fold higher.

`COc1cc(-c2cn(C3CCc4c(F)cccc4N(CC(F)(F)F)C3=O)nn2)ccc1Nc1cccnc1` (stereo not drawn) [Example 92, 6-fluoro-3-{4-[3-methoxy-4-(pyridin-3-ylamino)phenyl]-1H-1,2,3-triazol-1-yl}-1-(2,2,2-trifluoroethyl)-1,3,4,5-tetrahydro-2H-1-benzazepin-2-one] displayed an IC50 of 0.226 µM.
